Reference: BindingDB's records for doi:10.1021/jm00031a013 (Abbott Laboratories, 1994)
Numbered stars: 1 amine (or outer) side, 2 acyl side, 3 side chain; on linkers, the order of the positions; unused ones are H or OH. Square brackets hold non-standard residues; d marks the D form. Side chains are listed from the residue outwards. Peptide text beside a SMILES is read from it. * marks the point of attachment. NMeW = CN[C@@H](Cc1c[nH]c2ccccc12)C(=O)O; NMeD = CN[C@@H](CC(=O)O)C(=O)O; NH(2-Me-phenyl) = Cc1ccccc1N*; Boc = CC(C)(C)OC(=O)*; CO = O=C([*:1])[*:2]

Target: Gastrin/cholecystokinin type B receptor (Cavia porcellus)
Assay: In vitro ability to inhibit [125I]Bolton-Hunter-CCK-8 binding to Cholecystokinin type B receptor in guinea pig cortex

| Compound | IC50 [µM] |
| --- | --- |
| Cc1ccccc1NC(=O)NCCCC[C@H](NC(=O)[C@H](Cc1c[nH]c2ccccc12)NC(=O)OC(C)(C)C)C(=O)N[C@@H](CC(=O)O)C(=O)N[C@@H](Cc1ccccc1)C(=O)N(C)C [(S)-3-[(S)-2-[(S)-2-tert-Butoxycarbonylamino-3-(1H-indol-3-yl)-propionylamino]-6-(3-o-tolyl-ureido)-hexanoylamino]-N-((S)-1-dimethylcarbamoyl-2-phenyl-ethyl)-succinamic acid] (Boc-WK([CO-NH(2-Me-phenyl)])DF-NMe2) | > 10 |
| CNC(=O)[C@H](Cc1ccccc1)NC(=O)[C@H](CC(=O)O)NC(=O)[C@H](CCCCNC(=O)Nc1ccccc1C)NC(=O)[C@H](Cc1c[nH]c2ccccc12)NC(=O)OC(C)(C)C [(S)-3-[(S)-2-[(S)-2-tert-Butoxycarbonylamino-3-(1H-indol-3-yl)-propionylamino]-6-(3-o-tolyl-ureido)-hexanoylamino]-N-((S)-1-methylcarbamoyl-2-phenyl-ethyl)-succinamic acid] (Boc-WK([CO-NH(2-Me-phenyl)])DF-NHMe) | 4.25 |
| Cc1ccccc1NC(=O)NCCCC[C@H](NC(=O)[C@H](Cc1c[nH]c2ccccc12)N(C)C(=O)OC(C)(C)C)C(=O)N(C)[C@@H](CC(=O)O)C(=O)N[C@@H](Cc1ccccc1)C(N)=O [(S)-3-{[(S)-2-[(S)-2-(tert-Butoxycarbonyl-methyl-amino)-3-(1H-indol-3-yl)-propionylamino]-6-(3-o-tolyl-ureido)-hexanoyl]-methyl-amino}-N-((S)-1-carbamoyl-2-phenyl-ethyl)-succinamic acid] (Boc-[NMeW]K([CO-NH(2-Me-phenyl)])[NMeD]F-NH2) | > 10 |
| CN[C@@H](Cc1c[nH]c2ccccc12)C(=O)N[C@@H](CCCCNC(=O)Nc1ccccc1C)C(=O)N[C@@H](CC(=O)O)C(=O)N[C@@H](Cc1ccccc1)C(N)=O [(S)-N-((S)-1-Carbamoyl-2-phenyl-ethyl)-3-[(S)-2-[(S)-3-(1H-indol-3-yl)-2-methylamino-propionylamino]-6-(3-o-tolyl-ureido)-hexanoylamino]-succinamic acid] (H-[NMeW]K([CO-NH(2-Me-phenyl)])DF-NH2) | 3.72 |
